Assay results reported in patent US20110086759A1, “CHEMICAL COMPOUNDS” (SYNGENTA CROP PROTECTION, INC., priority 2007, published 2011).

Columns and labels:
Format in all cases: in vivo
[1] = test system: Amaranthus retoflexus (AMARE); assay: Pre-emergence biological efficacy, glasshouse pot test; conditions: Amaranthus retroflexus, 312 h; pre-emergence, 1,000 g/ha, evaluated after 13 days (100=total damage; 0=no damage); read-out: Percentage damage AMARE
Outline: (§1)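 Glasshouse pot test: spray on soil one day after sowing, 1000 or 250 g/ha. Conditions 24/16 °C day/night, 14 h light, 65% humidity. Plant damage scored 0–100 at 13 days.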

[2] = test system: Alopecurus myosuroides (ALOMY); assay: as above; conditions: 312 h, pre-emergence, 1,000 g/ha, evaluated after 13 days (100=total damage; 0=no damage), read-out: Percentage damage ALOMY
Outline: as §1

Setaria faberi (SETFA) [3] = assay: as above; conditions: 312 h, pre-emergence, 1,000 g/ha, evaluated after 13 days (100=total damage; 0=no damage), read-out: Percentage damage SETFA
Outline: as §1

[4] = test system: Echinochloa crus-galli (ECHCG); assay: as above; conditions: 312 h, pre-emergence, 1,000 g/ha, evaluated after 13 days (100=total damage; 0=no damage), read-out: Percentage damage ECHCG
Outline: as §1

[5] = test system: Ipomea hederaceae (IPOHE); assay: as above; conditions: Ipomoea hederacea, 312 h; pre-emergence, 1,000 g/ha, evaluated after 13 days (100=total damage; 0=no damage); read-out: Percentage damage IPOHE
Outline: as §1

Solanum nigrum (SOLNI) [6] = assay: as above; conditions: 312 h, pre-emergence, 1,000 g/ha, evaluated after 13 days (100=total damage; 0=no damage), read-out: Percentage damage SOLNI
Outline: as §1

[7] = test system: Amaranthus retoflexus (AMARE); assay: Post-emergence biological efficacy, glasshouse pot test; conditions: Amaranthus retroflexus, 312 h; post-emergence, 1,000 g/ha, evaluated after 13 days (100=total damage; 0=no damage); read-out: Percentage damage caused to weed species, AMARE
Outline: (§2)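 Pot-grown weeds were sprayed 8 days after sowing with test compound in acetone/water (50:50) with 0.5% Tween 20 at 1000 or 250 g/ha. Glasshouse at 24/16° C day/night, 14 h light, 65% humidity. Damage scored 0-100 (100 = total damage) after 13 days.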

[8] = test system: Alopecurus myosuroides (ALOMY); assay: as above; conditions: 312 h, post-emergence, 1,000 g/ha, evaluated after 13 days (100=total damage; 0=no damage), read-out: Percentage damage caused to weed species, ALOMY
Outline: as §2

Setaria faberi (SETFA) [9] = assay: as above; conditions: 312 h, post-emergence, 1,000 g/ha, evaluated after 13 days (100=total damage; 0=no damage), read-out: Percentage damage caused to weed species, SETFA
Outline: as §2

[10] = test system: Echinochloa crus-galli (ECHCG); assay: as above; conditions: 312 h, post-emergence, 1,000 g/ha, evaluated after 13 days (100=total damage; 0=no damage), read-out: Percentage damage caused to weed species, ECHCG
Outline: as §2

[11] = test system: Ipomea hederaceae (IPOHE); assay: as above; conditions: Ipomoea hederacea, 312 h; post-emergence, 1,000 g/ha, evaluated after 13 days (100=total damage; 0=no damage); read-out: Percentage damage caused to weed species, IPOHE
Outline: as §2

Solanum nigrum (SOLNI) [12] = assay: as above; conditions: 312 h, post-emergence, 1,000 g/ha, evaluated after 13 days (100=total damage; 0=no damage), read-out: Percentage damage caused to weed species, SOLNI
Outline: as §2

Row | SMILES | pest or weed control at 1000 g/ha [1] | pest or weed control at 1000 g/ha [2] | pest or weed control at 1000 g/ha (Setaria faberi (SETFA) [3]) | pest or weed control at 1000 g/ha [4] | pest or weed control at 1000 g/ha [5] | pest or weed control at 1000 g/ha (Solanum nigrum (SOLNI) [6]) | pest or weed control at 1000 g/ha [7] | pest or weed control at 1000 g/ha [8] | pest or weed control at 1000 g/ha (Setaria faberi (SETFA) [9]) | pest or weed control at 1000 g/ha [10] | pest or weed control at 1000 g/ha [11] | pest or weed control at 1000 g/ha (Solanum nigrum (SOLNI) [12])
1 | COC(=O)c1nc(C2CC2)nc(NCc2c(F)ccc(F)c2F)c1Cl [Compound 4-118, 5-Chloro-2-cyclopropyl-6-methoxycarbonyl-4-(2,3,6-trifluoro-phenylmethyl-amino)pyrimidine] | 40% | 20% | 0% | 50% | 70% | 40% | 100% | 60% | 80% | 80% | 90% | 80%
2 | COC(=O)c1nc(C2CC2)nc(NCc2cc(F)c(F)cc2F)c1Cl [Compound 4-120, 5-Chloro-2-cyclopropyl-6-methoxycarbonyl-4-(2,4,5-trifluoro-phenylmethyl-amino)pyrimidine] | 60% | 10% | 10% | 20% | 40% | 50% | 100% | 20% | 90% | 60% | 100% | 100%
3 | COC(=O)c1nc(C2CC2)nc(NCc2c(C)cc(Cl)cc2Cl)c1Cl [Compound 4-121, 5-Chloro-2-cyclopropyl-4-(2,4-dichloro-6-methylphenylmethyl-amino)-6-methoxy-carbonylpyrimidine] | 20% | 0% | 0% | 0% | 20% | 0% | 100% | 20% | 70% | 60% | 100% | 90%
4 | COC(=O)c1nc(C2CC2)nc(NCc2cc(OC)c(OC)c(OC)c2)c1Cl [Compound 4-122, 5-Chloro-2-cyclopropyl-6-methoxycarbonyl-4-(3,4,5-trimethoxy-phenylmethyl-amino)pyrimidine] | 60% | 10% | 20% | 30% | 90% | 30% | 100% | 20% | 90% | 90% | 100% | 100%
5 | COC(=O)c1nc(C2CC2)nc(NCc2ccco2)c1Cl [Compound 4-125, 5-Chloro-2-cyclopropyl-4-(furan-2-ylmethyl-amino)-6-methoxy-carbonylpyrimidine] | 100% | 70% | 80% | 80% | 100% | 90% | 100% | 60% | 90% | 80% | 100% | 100%
6 | COC(=O)c1nc(C2CC2)nc(NCc2ccc(Br)o2)c1Cl [Compound 4-129, 4-(5-bromofuran-2-ylmethylamino)-5-chloro-2-cyclopropyl-6-methoxycarbonyl-pyrimidine] | 100% | 30% | 40% | 70% | 100% | 100% | 100% | 40% | 90% | 70% | 100% | 90%
7 | COC(=O)c1nc(C2CC2)nc(NCc2ccc(C)o2)c1Cl [Compound 4-135, 5-Chloro-2-cyclopropyl-6-methoxy carbonyl-4-(5-methylfuran-2-ylmethylamino)-pyrimidine] | 100% | 60% | 90% | 100% | 100% | 100% | 100% | 60% | 90% | 90% | 100% | 100%
8 | COC(=O)c1nc(C2CC2)nc(NCc2cccs2)c1Cl [Compound 4-140, 5-Chloro-2-cyclopropyl-6-methoxycarbonyl-4-(thiophen-2-ylmethylamino)-pyrimidine] | 100% | 20% | 50% | 40% | 80% | 100% | 90% | 30% | 70% | 60% | 90% | 90%
9 | COC(=O)c1nc(C2CC2)nc(NCc2ccsc2Br)c1Cl [Compound 4-143, 4-(2-Bromothiophen-3-ylmethylamino)-5-chloro-2-cyclopropyl-6-methoxycarbonyl-pyrimidine] | 70% | 0% | 0% | 20% | 80% | 50% | 90% | 20% | 70% | 60% | 100% | 90%
10 | COC(=O)c1nc(C2CC2)nc(NCc2cnc(Cl)s2)c1Cl [Compound 4-146, 5-Chloro-4-(2-chlorothiazol-5-ylmethylamino)-2-cyclopropyl-6-methoxycarbonyl-pyrimidine] | 70% | 50% | 0% | 50% | 100% | 40% | 90% | 20% | 70% | 50% | 80% | 90%
11 | COC(=O)c1nc(C2CC2)nc(NCc2ncco2)c1Cl [Compound 4-148, 5-Chloro-2-cyclopropyl-6-methoxycarbonyl-4-(oxazol-2-ylmethylamino)-pyrimidine] | 80% | 20% | 20% | 30% | 100% | 90% | 100% | 20% | 50% | 40% | 60% | 80%
